IC50 data for two compounds are collected here from publication PMC4950264 (Molecular Ecology, 2016).

For this experiment, the target named is T1, CYP6Z1 (Anopheles funestus, UniProt Z9NKG6IF05).
T1 sequence (Z9NKG6IF05 1-492): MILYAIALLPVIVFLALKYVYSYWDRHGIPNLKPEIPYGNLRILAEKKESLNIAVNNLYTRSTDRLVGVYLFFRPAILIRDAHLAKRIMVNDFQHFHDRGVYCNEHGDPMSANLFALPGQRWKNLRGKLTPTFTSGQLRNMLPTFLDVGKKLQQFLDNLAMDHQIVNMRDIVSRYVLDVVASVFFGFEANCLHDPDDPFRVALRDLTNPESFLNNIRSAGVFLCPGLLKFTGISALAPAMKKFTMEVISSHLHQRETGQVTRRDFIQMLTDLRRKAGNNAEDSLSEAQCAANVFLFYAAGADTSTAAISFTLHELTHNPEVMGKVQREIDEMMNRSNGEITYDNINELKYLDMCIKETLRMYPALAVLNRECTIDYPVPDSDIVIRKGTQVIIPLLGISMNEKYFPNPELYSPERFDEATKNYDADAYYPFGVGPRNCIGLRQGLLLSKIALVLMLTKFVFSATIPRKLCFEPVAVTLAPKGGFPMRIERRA

Usually IC50 stands for the concentration at which inhibition is half-maximal. Low values mean higher potency, high ones lower potency. For `Clc1ccc(C(c2ccc(Cl)cc2)C(Cl)(Cl)Cl)cc1` [DDT], the IC50 turned out to be 8.9 µM. `CNC(=O)Oc1cccc2c1OC(C)(C)O2` [bendiocarb]: the IC50 worked out at 9.5 µM.
